{"source": "patent US11466044B2", "about": "(WAYNE STATE UNIVERSITY, priority 2017, dated 2022)", "key": {"[1]": {"test_system": "rabbit reticulocyte ribosomes", "test": "in-vitro translation assay, rabbit reticulocyte ribosomes", "format": "biochemical", "conditions": "mammalian cytosolic ribosomes (rabbit)"}, "E coli wild type": {"test_system": "E coli wild type", "test": "MIC by broth microdilution, wild type E coli", "format": "cell-based", "conditions": "for MIC AG001 E. coli WT: clinical isolate AG001, WT; for MIC AG055 E. coli WT: clinical isolate AG055, WT"}, "[2]": {"test_system": "mitochondrial ribosome (human chimeric)", "format": "biochemical", "description": "(§1) The antiribosomal activity of these compounds was investigated with cell-free translation assays using both wild type bacterial ribosomes and hybrid ribosomes carrying eukaryotic decoding A sites enabling the prediction of selectivity."}, "[3]": {"test_system": "E coli carrying specific resistance determinants", "test": "MIC by broth microdilution, E coli carrying specific resistance determinants", "format": "cell-based", "conditions": "for MIC AG003 E. coli AAC(3)-II: clinical isolate AG003, AAC(3)-II"}, "[4]": {"test_system": "A1555G mutant mitochondrial ribosome (human chimeric)", "test": "in-vitro translation assay, human chimeric ribosomes, A1555G mutant mitochondrial decoding site", "format": "biochemical", "conditions": "human mitochondrial decoding site with A1555G point mutation; read-out: IC50 Mitoch. A1555G", "description": "as §1"}, "[5]": {"test_system": "wild type bacterial ribosomes", "test": "in-vitro translation assay, bacterial ribosomes", "format": "biochemical", "description": "as §1"}, "MRSA": {"test_system": "MRSA", "test": "MIC by broth microdilution, MRSA isolates", "format": "cell-based", "conditions": "for MIC AG038 MRSA: clinical isolate AG038; for MIC AG039 MRSA AAC(6′)-I ANT(4′)-I: clinical isolate AG039, AAC(6′)-I ANT(4′)-I; for MIC AG042 MRSA AAC(6′)-I ANT(4′)-I APH(2′): clinical isolate AG042, AAC(6′)-I ANT(4′)-I APH(2′); for MIC AG044 MRSA: clinical isolate AG044"}, "P aeruginosa": {"test_system": "P aeruginosa", "test": "MIC by broth microdilution, P aeruginosa isolates", "format": "cell-based, Pseudomonas aeruginosa"}, "[6]": {"test_system": "cytosolic ribosome (human chimeric)", "format": "biochemical", "description": "as §1"}, "M. smegmatis SZ380": {"test_system": "M. smegmatis SZ380", "test": "MIC by broth microdilution, M. smegmatis", "conditions": "strain SZ380 Mycobacterium smegmatis"}, "[7]": {"test_system": "Acinetobacter baumannii pittii AG225", "test": "MIC by broth microdilution, Acinetobacter baumannii", "format": "cell-based", "conditions": "strain AG225 Acinetobacter baumannii pittii"}, "[8]": {"test_system": "Enterobacter cloacae AG290", "test": "MIC by broth microdilution, Enterobacter cloacae", "format": "cell-based", "conditions": "strain AG290 Enterobacter cloacae"}, "[9]": {"test_system": "Klebsiella pneumonia AG215", "test": "MIC by broth microdilution, Klebsiella pneumonia", "format": "cell-based", "conditions": "strain AG215 Klebsiella pneumonia"}, "[10]": {"conditions": "ribosomes with a human mitochondrial decoding site, read-out: IC50 Mitoch."}, "[11]": {"conditions": "Mycobacterium smegmatis ribosomes, read-out: IC50 Bacterial"}}, "note": "Where two headings read alike, the source gives them in different places.", "data": [{"smiles": "NC[C@H]1O[C@H](O[C@H]2[C@H](O[C@@H]3O[C@H](CN)[C@@H](O)[C@H]3O)[C@@H](O)[C@H](N)C[C@@H]2N)[C@H](N)[C@@H](O)[C@@H]1O", "note": "[DC048]", "values": [{"measurement": "IC50", "setting": "[1]", "value": 50, "unit": "µM"}, {"measurement": "MIC AG001 E. coli WT", "setting": "E coli wild type", "value": "32 to 64", "unit": "µg/mL"}, {"measurement": "MIC AG055 E. coli WT", "setting": "E coli wild type", "value": 32, "unit": "µg/mL"}, {"measurement": "IC50", "setting": "[2]; [10]", "value": 76, "unit": "µM"}, {"measurement": "MIC AG003 E. coli AAC(3)-II", "setting": "[3]", "value": 16, "unit": "µg/mL"}, {"measurement": "IC50", "setting": "[4]", "value": 34, "unit": "µM"}, {"measurement": "IC50", "setting": "[5]; [11]", "value": 0.09, "unit": "µM"}, {"measurement": "MIC AG038 MRSA", "setting": "MRSA", "value": 8, "unit": "µg/mL"}, {"measurement": "MIC AG039 MRSA AAC(6′)-I ANT(4′)-I", "setting": "MRSA", "value": ">64", "unit": "µg/mL"}, {"measurement": "MIC AG042 MRSA AAC(6′)-I ANT(4′)-I APH(2′)", "setting": "MRSA", "value": ">128", "unit": "µg/mL"}, {"measurement": "MIC AG044 MRSA", "setting": "MRSA", "value": "8 to 16", "unit": "µg/mL"}]}, {"smiles": "NC[C@@H]1O[C@H](O[C@H]2[C@@H](O)[C@H](O[C@@H]3[C@@H](O)[C@H](N)C[C@H](N)[C@H]3O[C@H]3O[C@H](CO)[C@@H](O)C[C@H]3N)O[C@@H]2CO)[C@H](N)[C@@H](O)[C@@H]1O", "note": "[Lividomycin B, lividomycin B, reference compound]", "values": [{"measurement": "IC50", "setting": "[1]", "value": 25, "unit": "µM"}, {"measurement": "MIC AG031 P. aer. APH(3′)-II", "setting": "P aeruginosa; clinical isolate AG031, APH(3′)-II", "value": 16, "unit": "µg/mL"}, {"measurement": "MIC AG032 P. aer. APH(3′)-II", "setting": "P aeruginosa; clinical isolate AG032, APH(3′)-II", "value": ">128", "unit": "µg/mL"}, {"measurement": "MIC50 P aeruginosa AG31", "setting": "P aeruginosa; strain AG31, Table 1 (Example 1)", "value": 16, "unit": "µg/mL"}, {"measurement": "MIC50 P aeruginosa AG32", "setting": "P aeruginosa; strain AG32, Table 1 (Example 1)", "value": ">128", "unit": "µg/mL"}, {"measurement": "MIC50 P aeruginosa AG33", "setting": "P aeruginosa; strain AG33, Table 1 (Example 1)", "value": 128, "unit": "µg/mL"}, {"measurement": "MIC50 P aeruginosa AG86", "setting": "P aeruginosa; strain AG86, Table 1 (Example 1)", "value": 128, "unit": "µg/mL"}, {"measurement": "MIC AG220 P. aerugin", "setting": "P aeruginosa; strain AG220 Pseudomonas aeruginosa ATCC27853", "value": 4, "unit": "µg/mL"}, {"measurement": "MIC E coli AG006 wt", "setting": "E coli wild type; AG006 wt, Table 2 (Example 1)", "value": "1 to 2", "unit": "µg/mL"}, {"measurement": "MIC E coli AG102 wt", "setting": "E coli wild type; AG102 wt, Table 2 (Example 1)", "value": 2, "unit": "µg/mL"}, {"measurement": "MIC E coli AG160 wt", "setting": "E coli wild type; AG160 wt, Table 2 (Example 1)", "value": 4, "unit": "µg/mL"}, {"measurement": "MIC WT", "setting": "E coli wild type; WT, Table 3 (Example 1)", "value": 2, "unit": "µg/mL"}, {"measurement": "MIC AG001 E. coli WT", "setting": "E coli wild type", "value": 4, "unit": "µg/mL"}, {"measurement": "MIC AG055 E. coli WT", "setting": "E coli wild type", "value": 2, "unit": "µg/mL"}, {"measurement": "MIC AG160 E. coli WT", "setting": "E coli wild type; clinical isolate AG160 WT, Table 2 (Example 4)", "value": 4, "unit": "µg/mL"}, {"measurement": "MIC pH430 E. coli WT", "setting": "E coli wild type; engineered strain pH430 WT, Table 2 (Example 4)", "value": 2, "unit": "μg/ml"}, {"measurement": "MIC50 E coli AG01", "setting": "E coli wild type; strain AG01, Table 1 (Example 1)", "value": 16, "unit": "µg/mL"}, {"measurement": "MIC50 E coli AG03", "setting": "E coli wild type; strain AG03, Table 1 (Example 1)", "value": "8 to 16", "unit": "µg/mL"}, {"measurement": "MIC50 E coli AG55", "setting": "E coli wild type; strain AG55, Table 1 (Example 1)", "value": 16, "unit": "µg/mL"}, {"measurement": "MIC AG212 E. coli", "setting": "E coli wild type; strain AG212 E. coli (ATCC25922)", "value": 4, "unit": "µg/mL"}, {"measurement": "IC50", "setting": "[6]; cytosolic, Table 3 (Example 1), read-out: IC50 Cyt", "value": 53, "unit": "µM"}, {"measurement": "IC50", "setting": "[6]; ribosomes with a human cytosolic decoding site, read-out: IC50 Cytosolic", "value": 53, "unit": "µM"}, {"measurement": "IC50", "setting": "[2]; mitochondrial, Table 3 (Example 1), read-out: IC50 Mit", "value": 109, "unit": "µM"}, {"measurement": "IC50", "setting": "[2]; [10]", "value": 109, "unit": "µM"}, {"measurement": "MIC SZ380 M. smegmatis", "setting": "M. smegmatis SZ380", "value": 0.5, "unit": "µg/mL"}, {"measurement": "MIC AG225 A. baumannii", "setting": "[7]", "value": 4, "unit": "µg/mL"}, {"measurement": "MIC AG290 E. cloacae", "setting": "[8]", "value": 2, "unit": "µg/mL"}, {"measurement": "MIC E coli AG007 ANT(3″) AAC(3)-I", "setting": "[3]; AG007 ANT(3″) AAC(3)-I, Table 2 (Example 1)", "value": 4, "unit": "µg/mL"}, {"measurement": "MIC E coli AG103 ArmA", "setting": "[3]; AG103 ArmA, Table 2 (Example 1)", "value": 16, "unit": "µg/mL"}, {"measurement": "MIC E coli AG163/164 APH(3′)-Ia", "setting": "[3]; AG163/164 APH(3′)-Ia, Table 2 (Example 1)", "value": ">128", "unit": "µg/mL"}, {"measurement": "MIC E coli AG166 APH(3′)-IIa", "setting": "[3]; AG166 APH(3′)-IIa, Table 2 (Example 1)", "value": "4 to 8", "unit": "µg/mL"}, {"measurement": "MIC APH(3)-VI", "setting": "[3]; APH(3)-VI, Table 3 (Example 1)", "value": 2, "unit": "µg/mL"}, {"measurement": "MIC APH(3′)-I", "setting": "[3]; APH(3′)-I, Table 3 (Example 1)", "value": ">64", "unit": "µg/mL"}, {"measurement": "MIC APH(3′)-II", "setting": "[3]; APH(3′)-II, Table 3 (Example 1)", "value": 2, "unit": "µg/mL"}, {"measurement": "MIC APH(3′)-III", "setting": "[3]; APH(3′)-III, Table 3 (Example 1)", "value": ">64", "unit": "µg/mL"}, {"measurement": "MIC AG003 E. coli AAC(3)-II", "setting": "[3]", "value": 4, "unit": "µg/mL"}, {"measurement": "MIC AG163 E. coli APH(3′)-I", "setting": "[3]; clinical isolate AG163 APH(3′)-I, Table 2 (Example 4)", "value": ">128", "unit": "µg/mL"}, {"measurement": "MIC AG166 E. coli APH(3′)-II", "setting": "[3]; clinical isolate AG166 APH(3′)-II, Table 2 (Example 4)", "value": "4 to 8", "unit": "µg/mL"}, {"measurement": "MIC AG037 E. coli APH(3′)-III", "setting": "[3]; engineered strain AG037 APH(3′)-III, Table 2 (Example 4)", "value": ">128", "unit": "µg/mL"}, {"measurement": "MIC pH421 E. coli APH(3′)-I", "setting": "[3]; engineered strain pH421 APH(3′)-I, Table 2 (Example 4)", "value": ">64", "unit": "μg/ml"}, {"measurement": "MIC pH422 E. coli APH(3′)-II", "setting": "[3]; engineered strain pH422 APH(3′)-II, Table 2 (Example 4)", "value": 2, "unit": "μg/ml"}, {"measurement": "MIC pH423 E. coli APH(3′)-VI", "setting": "[3]; engineered strain pH423 APH(3′)-VI, Table 2 (Example 4)", "value": 2, "unit": "μg/ml"}, {"measurement": "MIC AG215 K. pneumon", "setting": "[9]", "value": 2, "unit": "µg/mL"}, {"measurement": "IC50", "setting": "[5]; [11]", "value": 0.04, "unit": "µM"}, {"measurement": "IC50", "setting": "[5]; bacterial ribosome, Table 3 (Example 1), read-out: IC50 Bac", "value": 0.04, "unit": "µM"}, {"measurement": "MIC AG038 MRSA", "setting": "MRSA", "value": 4, "unit": "µg/mL"}, {"measurement": "MIC AG039 MRSA AAC(6′)-I ANT(4′)-I", "setting": "MRSA", "value": ">128", "unit": "µg/mL"}, {"measurement": "MIC AG042 MRSA AAC(6′)-I ANT(4′)-I APH(2′)", "setting": "MRSA", "value": ">128", "unit": "µg/mL"}, {"measurement": "MIC AG044 MRSA", "setting": "MRSA", "value": "4 to 8", "unit": "µg/mL"}, {"measurement": "MIC50 MRSA AG38", "setting": "MRSA; strain AG38, Table 1 (Example 1)", "value": 4, "unit": "µg/mL"}, {"measurement": "MIC50 MRSA AG39", "setting": "MRSA; strain AG39, Table 1 (Example 1)", "value": ">128", "unit": "µg/mL"}, {"measurement": "MIC50 MRSA AG42", "setting": "MRSA; strain AG42, Table 1 (Example 1)", "value": ">128", "unit": "µg/mL"}, {"measurement": "MIC50 MRSA AG44", "setting": "MRSA; strain AG44, Table 1 (Example 1)", "value": "4 to 8", "unit": "µg/mL"}]}]}
